Results on two compounds are retold here after ChEMBL document CHEMBL4665888, “[1,2,4]Triazolo[1,5-a]pyrimidine Phosphodiesterase 2A Inhibitors: Structure and Free-Energy Perturbation-Guided Exploration” (J Med Chem, 2020).

For series [1] the following is noted: rat, in vivo, po, 10 mg/kg.
Description: Plasma concentration in Long-Evans rat at 10 mg/kg, po
Another series is described as follows: in vivo. The conditions noted are these: Long-Evans, rat, brain/plasma, po, 10 mg/kg.
For series [2] the following is noted: rat, in vivo, po, 10 mg/kg. The source holds these as a separate data set.
Description: Drug concentration in Long-Evans rat brain at 10 mg/kg, po
Another series is described as follows: physchem. The note with it: pH 7.4 buffer.

In brackets after ≈: the same amount, converted by molar mass.

What is called Kp is the ratio of the level in a tissue or fluid to that in plasma or blood. By solubility is commonly meant the concentration that dissolves in the medium under given conditions. A high value points to much dissolved substance.

Description for in vivo: Ratio of drug concentration in Long-Evans rat brain to plasma at 10 mg/kg, po
Description for physchem: Solubility in pH 7.4 buffer

Regarding `C[C@@H]1CCN(C(=O)c2ccc3occc3c2)C[C@H]1c1cc(C(F)F)nc2ncnn12`, the Cp in series [1] was determined as 1640 ng/mL. For the same compound, the Kp in “in vivo” amounted to 0.5. The Drug uptake in series [2] was determined as 788 ng/mL.
Take `CS(=O)(=O)n1ccc2cc(C(=O)N3CCCC(c4ccnc5ncnn45)C3)ccc21` (racemic): in the series “physchem”, the solubility came out at 105 µM (≈ 44.6 µg/mL).
